The values below come from US8481678B2, “Peptide-based tooth whitening reagents” (E I du Pont de Nemours and Company, priority 2009, dated 2013).

The nature of experiment [1]: Phage ELISA, tooth enamel-binding assay (unpolished enamel blocks). Set-up: species or system bovine. The conditions noted are these: phage ELISA on unpolished enamel, over 10^10 pfu phage; no-phage control 0.193. The protocol:
(§1) A total of 11 selected phage candidates (Example 3) were used in a phage ELISA experiment. Purified phage lysates were used for binding to the enamel blocks using an anti-M13 phage antibody conjugated to horseradish-peroxidase, followed by the addition of chromogenic agent TMB, obtained from Pierce Biotechnology (Rockford, Ill.). The plates were read at A450 nm.
(§2) For each phage candidate to be tested, the polished and unpolished enamel blocks were incubated for 1 h at room temperature with 200 μL of blocking buffer, consisting of 2% non-fat dry milk (Schleicher & Schuell, Inc.) in TBS. […] The tube was rinsed 6 times with wash buffer consisting of TBST-0.05%. The wells were filled with 200 μL of TBST-0.5% containing 1 mg/mL BSA and then 10 μL (over 10^10 pfu) of purified phage stock was added. The samples were incubated at room temperature for 60 min with slow shaking. The non-binding phage was removed by washing 6 times with TBST-0.5%. […] The conjugate solution was removed and was washed 6 times with TBST-0.5%. […] “BoEn P” means bovine polished enamel and BoEn means bovine enamel.

The nature of experiment [2]: Phage ELISA, polished enamel-binding assay. Set-up: species or system bovine. The conditions noted are these: phage ELISA on polished enamel, over 10^10 pfu phage; no-phage control 0.112. The protocol: as §1, §2
The test system of experiment [3] is pellicle-coated enamel substrates. To be noted: range of peptide concentrations, 2 h at 37° C., 4-MUP fluorescence; calculated from Scatchard plots. The text has this: The pellicle-coated enamel substrates were removed from the wax backing and placed in well plates with the pellicle surface exposed as in Example 1. […] The blocking buffer was removed by aspirating the liquid out of each well. The tube was rinsed 2 times with wash buffer consisting of PBST. […] The non-binding peptide was removed by washing 6 times with PBST. […] The conjugate solution was removed and was washed 4 times with PBST.
Each enamel substrate was removed from the well and washed again in a 15-mL test tube with 10 mL of PBST. Each enamel substrate was then mounted in a clean well plate with only the enamel surface exposed.

For experiment [4] the test system is unchanged. The conditions noted are these: 20 μM synthetic biotinylated peptide, 30 min at 37° C.; normalized to DenP03; three replicates; no peptide −0.001. The procedure: A total of 20 synthetic peptides were manufactured using sequences obtained from Table 14. Peptides were obtained from Synbiosci (Livermore, Calif.) and included an additional SSRP sequence (SEQ ID NO: 151) at the N-terminus and biotin labeled lysine at the C-terminus.
Enamel substrates were cut to approx. 7 mm squares and mounted on wax mounting for incubation in the mouth for 30 min to form a pellicle coated surface. The pellicle-coated enamel substrates were removed from the wax backing and placed in well plates with the pellicle surface exposed as in Example 1. Each pellicle-coated substrate was incubated for 1 h at room temperature (˜22° C.) with 1 mL of blocking buffer, consisting of 1 mg/mL BSA in PBST (Pierce BupH™ #28372 with 0.1% TWEEN® 20). The blocking buffer was removed by aspirating the liquid out of each well. The tube was rinsed 2 times with wash buffer consisting of PBST. The wells were filled with 500 μL of 20 μM peptide solution which was prepared by diluting in blocking buffer. The samples were incubated for 30 min with slow shaking at 37° C. The non-binding peptide was removed by washing 6 times with PBST. Then, 500 μL of horseradish peroxidase/streptavidin conjugate (Pierce #22127), diluted 1:2000 in PBST, was added and incubated for 1 h at room temperature. The conjugate solution was removed and was washed 4 times with PBST.
Each enamel substrate was removed from the well and washed again in a 15-mL test tube with 10 mL of PBST. Each enamel substrate was then mounted in a clean well plate with only the enamel surface exposed. A 1:1 solution of TMB substrate and H2O2 (200 μL), obtained from Pierce Biotechnology (Rockford, Ill.) was added to each well and the color was allowed to develop for between 10 to 20 min, typically for 15 min, at room temperature (˜22° C.). Then, 100 μL of solution from each well was transferred to a 96-well reading plate containing stop solution (100 μL of 2 M H2SO4) in each well. The A450 was measured using a microplate spectrophotometer (Molecular Devices, Sunnyvale, Calif.). […] Each sequence was tested with three replicate enamel coated pellicle substrates.

The conditions of experiment [5]: 20 μM biotinylated peptide; mean of at least three replicates; no-peptide control 0.066. The text has this: Enzyme-linked immunosorbent assay (ELISA) was used to evaluate the cellulose acetate coated iron oxide particle-binding affinity of the biopanning selected peptide candidates (Example 6; biotinylated peptides phage ID: CA-1 to CA-4). The identified peptides were synthesized using a standard solid-phase synthesis method (see U.S. patent application Ser. No. 11/251/715). All peptides were modified to contain a biotinylated lysine residue at the C-terminus of the amino acid binding sequence for detection purposes (Table 6).
The cellulose acetate-coated iron oxide particles were dispersed in water at 2.5 mg per mL. […] The particle dispersion (1 mL each) was then centrifuged for 2 min at 5000 rpm, the aqueous was removed by aspirating it out of each tube. The tubes were incubated in SUPERBLOCK® blocking buffer (Pierce Chemical Company, Rockford, Ill.; Prod. #37535) for 1 hour at room temperature (˜22° C.), followed by 3 washes with TBST (TBS in 0.05% TWEEN® 20). Then tubes were then rinsed 3 times with wash buffer consisting of TBST-0.05% using the same centrifugation and aspiration methods. Peptide binding buffer consisting of 20 μM biotinylated peptides in TBST and 1 mg/mL BSA was added to the particles and incubated for 1 hour at room temperature (˜22° C.), followed by 6 TBST washes. Then, the streptavidin-alkaline phosphatase (AP) conjugate (Pierce Chemical Co., Rockford, Ill.) was added to each well at standard concentration and incubated for 1 hour at room temperature, followed by 6 times of washes with TBST. All particles were then transferred to new tubes and then the color development and the absorbance measurements were performed following the manufacturer's standard protocols.

Where no end group is shown, it is not given here. The star is where a group is joined. Biotin = O=C1N[C@H]2[C@H](CS[C@H]2CCCCC(=O)*)N1

As to “AANPHTEWDRDAFQLAMPPK (Tooth-binding peptide) [BoEn 1]”, the “O.D. at 450 nm” value in experiment [1] was determined as 1.402.

For the substance “NTCQPTKNATPCSA (Tooth-binding peptide) [BoEn P6]”, the “O.D. at 450 nm” value in experiment [2] is given as 0.83.

As for “SDCTAGLVPPLCAT (Tooth-binding peptide) [BoEn 7]”, the “O.D. at 450 nm” value in experiment [1] is on record as 0.892.

Take “SSRPHKNENIMQYNVNDRWHITPAK(Biotin) [DenP32-A]”: the “MB50” value in experiment [3] is 25 µM. In addition, the “O.D. at 450 nm (normalized)” value in experiment [4] stood at 1.135.

With “THNMSHFPPSGHPKRTAT (Tooth-binding peptide) [BoEn P8]”, the “O.D. at 450 nm” value in experiment [2] turned out to be 2.02.

Take “GYCLRGDEPAVCSG (Tooth-binding peptide) [BoEn P3]”: the “O.D. at 450 nm” value in experiment [2] came out at 0.665.

“SSRPTTYHYKNIYQESYQQRNPAVK(Biotin) [DenP3-A]”: in experiment [3], the “MB50” value was 28 µM. Further, the “O.D. at 450 nm (normalized)” value in experiment [4] stood at 1.000.

As to “LNDQRKPGPPTMPTHSPAVG (Tooth-binding peptide) [BoEn 5]”, the “O.D. at 450 nm” value in experiment [1] came to 0.944.

With “EPPTRTRVNNHTVTVQAQQH (Tooth-binding peptide) [BoEn P2]”, the “O.D. at 450 nm” value in experiment [2] was 0.641.

Turning to “VGTMKQHPTTTQPPRVSATN (Tooth-binding peptide) [BoEn 9]”, the “O.D. at 450 nm” value in experiment [1] came out at 0.568.

Turning to DTIHPNKMKSPSSPL-K-biotin-NH2 [CA-2], the “O.D. at 405 nm” value in experiment [5] came to 0.207.

As for “NTCATSPNSYTCSN (Tooth-binding peptide) [BoEn 6]”, in experiment [1], the “O.D. at 450 nm” value was 2.38.

Take “NFCETQLDLSVCTV (Tooth-binding peptide) [BoEn P5]”: the “O.D. at 450 nm” value in experiment [2] is reported as 0.797.

In the case of SDETGPQIPHRRPTW-K-biotin-NH2 [CA-4], the “O.D. at 405 nm” value in experiment [5] was 0.141.

For the substance “ATTPPSGKAAAHSAARQKGN-K-biotin-NH2 [CA-1]”, in experiment [5], the “O.D. at 405 nm” value worked out at 0.269.

In the case of “NGNNHTDIPNRSSYTGGSFA-K-biotin-NH2 [CA-3]”, in experiment [5], the “O.D. at 405 nm” value was 0.279.

As to “YSETPNDQKPNPHYKVSGTK (Tooth-binding peptide) [BoEn 10]”, the “O.D. at 450 nm” value in experiment [1] is reported as 3.942.
